Test results taken from paper PMC10117725, “From an Hsp90 - binding protein to a peptide drug” (microLife, 2022).
Where no end group is shown, it is not given here.

Legend:
[1] = test system: S. aureus USA300 internalization by HaCaT cells; assay: S. aureus USA300 invasion (internalization) into HaCaT keratinocytes; format: cell-based, human; settings: for relative invasion (intracellular USA300 count) in HaCaT at 20 µM: peptide 20 µM; for relative invasion (intracellular USA300 count) in HaCaT at 50 µM: peptide 50 µM; for decrease in uptake/invasion of S. aureus USA300 by HaCaT cells compared to untreated control: preincubation with L15 20 µM, L13 30 µM, geldanamycin 5 µM or α-Hsp90α antibody, MOI 30; for concentration from which a significant reduction of intracellular USA300 was observed: tested 0 to 50 µM in HaCaT
Description: The invasion protocol was adapted from our previous papers (Nguyen et al. [2015], Tribelli et al. [2020]). About 5 × 10^5 Keratinocytes were seeded in a 24 well plate (Greiner, Frickenhausen, Germany) to attain a monolayer of ∼10^6 cells/well. Staphylococcusaureus was grown overnight at 37°C, centrifuged and suspended in invasion medium (DMEM with 10% FBS for HaCaT and K-SFM for NTERT-1 cells). The adherent keratinocytes were […], or 5 µM geldanamycin (Sigma-Aldrich, Germany) or monoclonal antibodies specific against Hsp90α (α‐Hsp90α, Abcam) for 1 h. After 1 h, 100 µl of bacterial suspension was added to each well to attain a MOI (multiplicity of infection) of 30 and incubated with cells for 1.5 h. Subsequently, the extracellular bacteria were killed with treatment of 2.5 μg/ml lysostaphin (Sigma-Aldrich, Germany) for 1.5 h. The cells were then washed, lysed, mechanically detached by scraping, diluted, and enumerated on TSA (Tryptic Soy Agar) plates to quantify the intracellular bacteria.

[2] = test system: F-actin levels in HaCaT cells; assay: F-actin measurement (ActinGreen 488 fluorescence) in HaCaT cells; format: cell-based, human; settings: 35 µg/ml peptide (L15 20 µM, L13 30 µM), geldanamycin 5 µM; 1.5 h; ActinGreen 488 fluorescence relative to control
Description: (§1) About 5 × 10^4 cells were seeded in black flat bottom 96 well cell culture microplate (Greiner, Germany) and incubated overnight. The cells were then incubated with peptides or geldanamycin for 1.5 h. After incubation, the cells were washed, permeabilised with 0.1% (v/v) Triton X-100 and stained with ActinGreen™ 488 ReadyProbes® (Thermo Fischer, Germany) for 30 min. After the staining, the cells were washed and measure for its fluorescence at Excitation/Emission: 495/518 nm (Luqman et al. [2020]).

[3] = test system: F-actin levels in N/TERT-1 cells; assay: F-actin measurement (ActinGreen 488 fluorescence) in N/TERT-1 cells; format: cell-based, human; settings: L15 20 µM, L13 30 µM, geldanamycin 5 µM; 1.5 h; relative to control
Description: as §1

[4] = test system: N/TERT-1 cells; assay: Cytotoxicity in N/TERT-1 cells at tested concentration; format: cell-based, human; settings: concentrations used in invasion studies (Fig. S1)
Description: MTT (3-(4,5-dimethylthiazol-2-yl)-2,5-diphenyl tetrazolium bromide) assay was employed to analyze the cytotoxicity of peptides and geldanamycin to the cells. 5 × 10^5 cells were seeded in a 96 flat bottom well plate and incubated for 2.5 or 24 h at 37°C with 5% CO2. The cells were then treated with increasing concentration (0 to 200 µM) of peptides or geldanamycin for 24 h. After the incubation, 10 μl of the MTT labelling reagent is added to each well to attain a final concentration 0.5 mg/ml, followed by 4 h incubation. Metabolically active cells convert the yellow tetrazolium salt to purple formazan crystals, which were solubilized using the solubilization solution (DMSO) and measured for absorbance at λmax/λref–570/690 nm (Saising et al. [2018]).

[5] = test system: S. aureus Newman; assay: Galleria mellonella larvae infection model, S. aureus Newman; format: in vivo; settings: peptides 60 mg/kg, vancomycin 20 mg/kg, injected 1 h before 10^6 cfu; 37°C
Description: Galleria mellonella larvae, purchased from Feeders & more GmbH, Germany, were sorted based on weight and used within one week. Ten larvae per group with weight average of 500 mg/larvae were injected with bacteria and/or peptides on its last proleg using a BD insulin syringe. The dosage used for the experiment were 60 mg/kg for peptides, 5 mg/kg of geldanamycin and 20 mg/kg for vancomycin. Each larva was injected with 10 µl of L15 (last left proleg) 1 h before administration of 10^6 cfu S. aureus (last right proleg). The larvae were maintained at 37°C and observed for mortality every day over the course of 5 days.

[6] = test system: S. aureus USA300 invasion into N/TERT-1 cells; assay: S. aureus USA300 invasion into N/TERT-1 keratinocytes; format: cell-based, human; settings: pretreatment with L15 20 µM, L13 30 µM, geldanamycin 5 µM or α-Hsp90α antibody
Description: The invasion protocol was adapted from our previous papers (Nguyen et al. [2015], Tribelli et al. [2020]). About 5 × 10^5 Keratinocytes were seeded in a 24 well plate (Greiner, Frickenhausen, Germany) to attain a monolayer of ∼10^6 cells/well. Staphylococcusaureus was grown overnight at 37°C, centrifuged and suspended in invasion medium (DMEM with 10% FBS for HaCaT and K-SFM for NTERT-1 cells). The adherent keratinocytes were washed with PBS and supplemented with invasion medium followed by treatment with 20 µM of L15, 30 µM of L13, or 5 µM geldanamycin (Sigma-Aldrich, Germany) or monoclonal antibodies specific against Hsp90α (α‐Hsp90α, Abcam) for 1 h. After 1 h, 100 µl of bacterial suspension was added to each well to attain a MOI (multiplicity of infection) of 30 and incubated with cells for 1.5 h. Subsequently, the extracellular bacteria were killed with treatment of 2.5 μg/ml lysostaphin (Sigma-Aldrich, Germany) for 1.5 h. The cells were then washed, lysed, mechanically detached by scraping, diluted, and enumerated on TSA (Tryptic Soy Agar) plates to quantify the intracellular bacteria.

Sequence: GHYFVTTFY [L13]
- relative invasion (intracellular USA300 count) in HaCaT at 20 µM ([1]; untreated control 1.0 ± 0.0): 0.67 ± 0.05
- relative invasion (intracellular USA300 count) in HaCaT at 40 µM ([1]; peptide 40 µM, untreated control 1.0 ± 0.0): 0.41 ± 0.03
- relative invasion (intracellular USA300 count) in HaCaT at 50 µM ([1]; untreated control 1.0 ± 0.0): 0.73 ± 0.18
- decrease in uptake/invasion of S. aureus USA300 by HaCaT cells compared to untreated control [1]: 50–60%
- concentration from which a significant reduction of intracellular USA300 was observed [1]: ≥ 20 µM
- Relative F-actin level in HaCaT [2]: 0.87 ± 0.03
- relative F-actin content in N/TERT-1 cells [3]: 0.81 ± 0.03
- toxicity to N/TERT-1 cells at tested concentration and exposure time [4]: neither inhibit the viability of host cells
- larvae surviving on day 5, S. aureus Newman [5]: 46%
- invasion of S. aureus USA300 into N/TERT-1 cells [6]: inhibits the invasion

Sequence: TAKGHYFVTTFYRNG [L15]
- relative invasion (intracellular USA300 count) in HaCaT at 20 µM ([1]; untreated control 1.0 ± 0.0): 0.33 ± 0.24
- relative invasion (intracellular USA300 count) in HaCaT at 50 µM ([1]; untreated control 1.0 ± 0.0): 0.40 ± 0.05
- decrease in uptake/invasion of S. aureus USA300 by HaCaT cells compared to untreated control [1]: 50–60%
- concentration from which a significant reduction of intracellular USA300 was observed [1]: ≥ 20 µM
- Relative F-actin level in HaCaT [2]: 0.83 ± 0.04
- relative F-actin content in N/TERT-1 cells [3]: 0.9 ± 0.02
- toxicity to N/TERT-1 cells at tested concentration and exposure time [4]: neither inhibit the viability of host cells
- larvae surviving on day 5, S. aureus Newman [5]: 36%
- invasion of S. aureus USA300 into N/TERT-1 cells [6]: inhibits the invasion
